Measured values: patent US11185100B2 (priority 2014, dated 2021)
Where two headings read alike, the source gives them in different places.

Biological target: T1R1/T1R3 receptor (Felis catus, UniProt E3UMS2)
Assay: Activation of T1R1/T1R3 receptor by transmembrane compounds and nucleotide derivatives, conducted as in Examples 1, 2 and 5 (Example 7)
Assay type: cell-based, cat
Settings: for Activity: modulation of T1R1/T1R3
Description: Methods: HEK293 cells that stably express T1R3 and inducibly express T1R1 were exposed to nucleotide derivatives alone to activate the umami receptor. Activation of the T1R1/T1R3 receptor was detected by a change in intracellular calcium levels using a calcium sensitive fluorescent dye. Cells that express T1R3 but not T1R1 were used as a control. A FLIPR® Tetra or a FlexStation® 3 was used for data capture.
Methods: HEK293 cells that stably express T1R3 and inducibly express T1R1 were exposed to nucleotide derivatives alone or in combination with one or more amino acids and/or one or more nucleotides to activate the umami receptor. Activation of the T1R1/T1R3 receptor was detected by a change in intracellular calcium levels using a calcium sensitive fluorescent dye and/or a luminescent reporter system. Cells that express T1R3 but not T1R1 were used as a control. A FLIPR® Tetra or a FlexStation® 3 was used for data capture.
Methods: HEK293 cells that stably express T1R3 and inducibly express T1R1 were exposed to transmembrane compounds alone or in combination with one or more amino acids and/or one or more nucleotides to activate the umami receptor. Activation of the T1R1/T1R3 receptor was detected by a change in intracellular calcium levels using a calcium sensitive fluorescent dye. Cells that express T1R3 but not T1R1 were used as a control. A FLIPR® Tetra or a FlexStation® 3 was used for data capture.
In each experiment, serial dilutions of up to 10 mM of the transmembrane compound were added to the T1R1/T1R3-expressing cells.

Row | Structure (SMILES) | Max resp % of Ala +IMP (0.2 mM) (+IMP (0.2 mM)) | Max resp ΔF/F +IMP (0.2 mM) (+IMP (0.2 mM)) | Thres +IMP (0.2 mM) (+IMP (0.2 mM)) | Max resp ΔF/F +IMP (0.2 mM) | Max resp ΔF/F +Alanine (20 mM) | Thres +Alanine (20 mM) | Max resp % of IMP +Alanine (20 mM) (hek293 cells) | Activity | EC50 (read-out: EC50 +Alanine (20 mM) + IMP (0.2 mM)) | EC50 (read-out: T1R1/T1R3 EC50) | EC50 (read-out: EC50 +Alanine (20 mM)) | Max resp % of IMP +Alanine (20 mM) (+Alanine (20 mM)) | Max resp ΔF/F +Alanine (20 mM) (+Alanine (20 mM)) | Thres +Alanine (20 mM) (+Alanine (20 mM))
1 | N[C@@H](CO)C(=O)O [L-Serine, reference compound] | 100.0 % of Ala | 0.7775 ΔF/F | 3.0 mM | – | – | – | – | – | – | – | – | – | – | –
2 | N[C@@H](Cc1c[nH]c2ccccc12)C(=O)O [L-Tryptophan, reference compound] | 86.8 % of Ala | 0.6750 ΔF/F | 0.1 mM | – | – | – | – | – | – | – | – | – | – | –
3 | N[C@@H](Cc1ccc(O)cc1)C(=O)O [L-Tyrosine, reference compound] | 38.0 % of Ala | – | 3.0 mM | 0.2958 ΔF/F | – | – | – | – | – | – | – | – | – | –
4 | O=C(NCCCCNC(=O)c1cccnc1)c1cccnc1 [N,N′-(butane-1,4-diyl)dinicotinamide] | 49.2 % of Ala | 0.3825 ΔF/F | 0.1 mM | – | 0.0650 ΔF/F | 1.0 mM | 9.5 % of IMP | active | 610 µM | 610 ± 360 µM | – | – | – | –
5 | O=C(NCCc1c[nH]c2ccccc12)c1cccnc1 [N-(2-(1H-indol-3-yl)ethyl)nicotinamide, N-(2-(1H-Indol-3-yl)ethyl)nicotinamide] | 170.1 % of Ala | 1.3225 ΔF/F | 0.003 mM | – | 1.1400 ΔF/F | 0.03 mM | 166.4 % of IMP | active | – | – | > 100 µM | – | – | –
6 | O=C(NCCc1ccccc1)c1ccccc1 [N-phenethylbenzamide] | 126.0 % of Ala | 0.9800 ΔF/F | 0.01 mM | – | 0.1400 ΔF/F | 0.6 mM | 20.4 % of IMP | active | – | – | – | – | – | –
7 | O=C(NCCc1ccccc1)c1ccc2c(c1)OCO2 [N-phenethylbenzo[d][1,3]dioxole-5-carboxamide] | 92.0 % of Ala | 0.7150 ΔF/F | 0.01 mM | – | 0.0775 ΔF/F | 1.0 mM | 11.3 % of IMP | active | – | – | – | – | – | –
8 | O=C(NCCc1ccccc1)c1cccnc1 [N-phenethylnicotinamide] | 149.5 % of Ala | 1.1625 ΔF/F | 0.03 mM | – | 0.5725 ΔF/F | 0.1 mM | 83.6 % of IMP | active | – | > 300 µM | – | – | – | –
9 | CCOC(=O)NC(=O)C(c1ccccc1)c1ccccc1 [Ro 01-6128, reference compound] | 199.7 % of Ala | 1.5525 ΔF/F | 0.01 mM | – | – | – | – | active | – | – | – | 74.8 % of IMP | 0.5125 ΔF/F | 0.3 mM
